Where “and” joins values, the source holds several entries; their conditions need not be identical. Equal values may be shown once.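 Exposure lasted 48 hours, with cells grown in 96-well plates and compounds tested at five concentrations. GI50: concentration for 50% inhibition of growth. TGI denotes the concentration required for complete inhibition of growth.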
Key:
Assay in all cases: NCI tumour cell line growth inhibition, 48 h
KM12 colon = system: KM12 colon
SK-OV-3 ovarian = system: SK-OV-3 ovarian
OVCAR-5 ovarian = system: OVCAR-5 ovarian
OVCAR-4 ovarian = system: OVCAR-4 ovarian
HCT-116 colon = system: HCT-116 colon
UACC-62 melanoma = system: UACC-62 melanoma
SN12C renal = system: SN12C renal
LOX IMVI melanoma = system: LOX IMVI melanoma
IGROV1 ovarian = system: IGROV1 ovarian
M14 melanoma = system: M14 melanoma
MALME-3M melanoma = system: MALME-3M melanoma
SK-MEL-2 melanoma = system: SK-MEL-2 melanoma
A498 renal = system: A498 renal

Row | Compound | TGI (KM12 colon) | TGI (SK-OV-3 ovarian) | TGI (OVCAR-5 ovarian) | TGI (OVCAR-4 ovarian) | TGI (HCT-116 colon) | TGI (UACC-62 melanoma) | TGI (SN12C renal) | TGI (LOX IMVI melanoma) | TGI (IGROV1 ovarian) | TGI (M14 melanoma) | TGI (MALME-3M melanoma) | TGI (SK-MEL-2 melanoma) | TGI (A498 renal) | GI50 (KM12 colon) | GI50 (SK-MEL-2 melanoma) | GI50 (OVCAR-5 ovarian) | GI50 (OVCAR-4 ovarian) | GI50 (A498 renal) | GI50 (UACC-62 melanoma) | GI50 (MALME-3M melanoma)
1 | CCSc1nc(N)c2c(-c3ccc(OC)c(OC)c3)c3c(nc2n1)CCCC3 | > 100 µM | > 100 µM | > 100 µM | > 100 µM | > 100 µM | > 100 µM | > 100 µM | > 100 µM | > 100 µM | > 100 µM | > 100 µM | – | – | – | – | – | – | – | – | –
2 | C=CCc1cc(-c2cc(CC=C)c(O)c(CN(CCCl)CCCl)c2)cc(CN(CCCl)CCCl)c1O | 36.7 µM | 46.9 µM | 35.4 µM | 52.6 µM | 25.3 µM | 28.9 µM | 27.7 µM | > 80.8 µM | 38.9 µM | 38.3 µM | 42.6 µM | 40.6 µM | 40.5 µM | – | – | – | – | – | – | –
3 | CC(C)(C)NCc1cc(Nc2ccnc3cc(Cl)ccc23)cc(-c2ccc(Cl)cc2)c1O | 10.4 µM | 16.9 µM | 16.3 µM | 14.5 µM | 5.79 µM | 3.85 µM | 8.9 µM | 5.64 µM | 7.18 µM | 4 µM | 3.28 µM | 4.02 µM | 11.5 µM | – | – | – | – | – | – | –
4 | O=C(O)CCCCCCC[C@@H]1S[C@H]1CCCCCCO | > 100 µM | > 100 µM | > 100 µM | > 100 µM | > 100 µM | > 100 µM | > 100 µM | > 100 µM | > 100 µM | – | > 100 µM | > 100 µM | > 100 µM | – | – | – | – | – | – | –
5 | COC(=O)CCC(=O)CC(=O)C1=NS(=O)(=O)c2nc(S(N)(=O)=O)c(Cl)cc2N1 | > 100 µM | > 100 µM | > 100 µM | > 100 µM | > 100 µM | > 100 µM | > 100 µM | > 100 µM | > 100 µM | > 100 µM | > 100 µM | > 100 µM | > 100 µM | – | – | – | – | – | – | –
6 | Nc1ccccc1CCCC(=O)O | > 100 µM | > 100 µM | > 100 µM | > 100 µM | > 100 µM | > 100 µM | > 100 µM | > 100 µM | > 100 µM | > 100 µM | > 100 µM | > 100 µM | > 100 µM | – | – | – | – | – | – | –
7 | COCc1nc2c(OC)cc(-c3nc4nc(N5CCN(C)CC5)ccc4[nH]3)c(OC)c2[nH]1 | > 100 µM | > 100 µM | > 100 µM | > 100 µM | > 100 µM | > 100 µM | > 100 µM | > 100 µM | > 100 µM | 42.4 µM | 44.2 µM | – | > 100 µM | – | – | – | – | – | – | –
8 | CC1C(=O)OC2CC[N+]3(CC(=O)c4ccc(Br)cc4)CC=C(COC(=O)C(C)(O)C1(C)O)C23 (stereo not given) | > 375 µM | > 375 µM | > 375 µM | > 375 µM | > 375 µM | > 375 µM | > 375 µM | > 375 µM | > 375 µM | – | > 375 µM | > 375 µM | > 375 µM | – | – | – | – | – | – | –
9 | CN(C)c1ccc(/C=C2/SC(=S)NC2=O)cc1 | > 100 µM | > 100 µM | 72.6 µM | > 100 µM | > 100 µM | > 100 µM | > 100 µM | > 100 µM | > 100 µM | > 100 µM | > 100 µM | > 100 µM | > 100 µM | – | – | – | – | – | – | –
10 | S=C1SC(=Nc2ccccc2)C(=Nc2ccccc2)N1c1ccccc1 | > 100 µM | > 100 µM | > 100 µM | > 100 µM | > 100 µM | > 100 µM | > 100 µM | – | > 100 µM | > 100 µM | > 100 µM | > 100 µM | > 100 µM | – | – | – | – | – | – | –
11 | O=c1[nH]c(Nc2ccc(F)c(Cl)c2)nc2nc[nH]c12 | > 100 µM | > 100 µM | > 100 µM | > 100 µM | > 100 µM | > 100 µM | > 100 µM | > 100 µM | > 100 µM | > 100 µM | > 100 µM | > 100 µM | > 100 µM | – | – | – | – | – | – | –
12 | Cc1cc(NC(=S)Nc2ccccc2)c(NC(=S)Nc2ccccc2)cc1C | > 100 µM | > 75 µM | > 100 µM | > 100 µM | > 100 µM | > 100 µM | > 100 µM | > 100 µM | > 100 µM | – | > 100 µM | > 31.6 µM | 98.3 µM | – | – | – | – | – | – | –
13 | N#C[S-].[Nd+3].c1cnc2c(c1)ccc1cccnc12.c1cnc2c(c1)ccc1cccnc12.c1cnc2c(c1)ccc1cccnc12 | 22.6 µM | 12.5 µM | 15.3 µM | 14.4 µM | 6.43 µM | 5.44 µM | 14.2 µM | 13.1 µM | 25.3 µM | 6.17 µM | 9.54 µM | – | 13.6 µM | – | – | – | – | – | – | –
14 | CC1=C(C)C(=O)O[C@@H]([C@](C)(O)[C@]2(O)CC[C@@]3(O)[C@@H]4C[C@H]5O[C@]56[C@@H](O)C=CC(=O)[C@]6(C)[C@H]4CC[C@]23C)C1 | 6.73 µM and 4.57 µM | 14.7 µM and 20.4 µM | 8.44 µM and 5.88 µM | 3.08 µM and 1 µM | 2.88 µM | 3.41 µM and 3 µM | 6.59 µM | 2.64 µM | 9.53 µM and 6.51 µM | – | 2.27 µM and 2.66 µM | 1.65 µM and 2.56 µM | 11.1 µM and 2.08 µM | 0.95 µM and 0.637 µM | 0.385 µM | 3.55 µM and 1.47 µM | 0.0878 µM and 0.43 µM | 1.12 µM and 0.376 µM | 0.288 µM and 0.0848 µM | 0.411 µM
15 | C[n+]1c2ccccc2c(CNc2ccc(S(=O)(=O)N=C(N)N)cc2)c2ccccc21 | 27.7 µM | > 100 µM | > 100 µM | > 100 µM | 27.2 µM | 42.1 µM | 27.8 µM | 20.2 µM | 66.6 µM | 28 µM | 63.1 µM | 59.5 µM | 86.2 µM | – | – | – | – | – | – | –
16 | CC(C)=CC1C(COC(=O)c2cc3c(cc2Cl)OCO3)C1(C)C (stereo not given) | > 100 µM | – | > 100 µM | > 100 µM | > 100 µM | > 100 µM | > 100 µM | 50 µM | > 100 µM | > 100 µM | 41.6 µM | 40.6 µM | 90.6 µM | – | – | – | – | – | – | –
